Results published in ChEMBL document CHEMBL1135064, “Studies on quinazolinones as dual inhibitors of Pgp and MRP1 in multidrug resistance” (Bioorg Med Chem Lett, 2002).
One block for each compound: values may come before it.

Legend:
[1] = molecular target: ATP-dependent translocase ABCB1 (Mus musculus, UniProt P06795); assay: Inhibitory activity against P-glycoprotein (Pgp) using accumulation assay for Pgp expressing EMT6/AR1.0 cells.; type: functional
[2] = molecular target: Multidrug resistance-associated protein 1 (Homo sapiens, UniProt P33527); assay: Inhibition of multidrug resistance associated protein type 1 (MRP1) assayed by an accumulation assay in COR.L23/R cells; type: functional, cell-based
[3] = Compound was evaluated for its inhibitory activity against multidrug resistance associated protein type 1 (MRP) using potentiation assay; type: functional, Homo sapiens
[4] = tested on: EMT6; assay: Compound was evaluated for its inhibitory activity against P-glycoprotein (Pgp) using potentiation assay; type: functional, cell-based; settings: Mus musculus

Sequence of ATP-dependent translocase ABCB1 (P06795 whole entry): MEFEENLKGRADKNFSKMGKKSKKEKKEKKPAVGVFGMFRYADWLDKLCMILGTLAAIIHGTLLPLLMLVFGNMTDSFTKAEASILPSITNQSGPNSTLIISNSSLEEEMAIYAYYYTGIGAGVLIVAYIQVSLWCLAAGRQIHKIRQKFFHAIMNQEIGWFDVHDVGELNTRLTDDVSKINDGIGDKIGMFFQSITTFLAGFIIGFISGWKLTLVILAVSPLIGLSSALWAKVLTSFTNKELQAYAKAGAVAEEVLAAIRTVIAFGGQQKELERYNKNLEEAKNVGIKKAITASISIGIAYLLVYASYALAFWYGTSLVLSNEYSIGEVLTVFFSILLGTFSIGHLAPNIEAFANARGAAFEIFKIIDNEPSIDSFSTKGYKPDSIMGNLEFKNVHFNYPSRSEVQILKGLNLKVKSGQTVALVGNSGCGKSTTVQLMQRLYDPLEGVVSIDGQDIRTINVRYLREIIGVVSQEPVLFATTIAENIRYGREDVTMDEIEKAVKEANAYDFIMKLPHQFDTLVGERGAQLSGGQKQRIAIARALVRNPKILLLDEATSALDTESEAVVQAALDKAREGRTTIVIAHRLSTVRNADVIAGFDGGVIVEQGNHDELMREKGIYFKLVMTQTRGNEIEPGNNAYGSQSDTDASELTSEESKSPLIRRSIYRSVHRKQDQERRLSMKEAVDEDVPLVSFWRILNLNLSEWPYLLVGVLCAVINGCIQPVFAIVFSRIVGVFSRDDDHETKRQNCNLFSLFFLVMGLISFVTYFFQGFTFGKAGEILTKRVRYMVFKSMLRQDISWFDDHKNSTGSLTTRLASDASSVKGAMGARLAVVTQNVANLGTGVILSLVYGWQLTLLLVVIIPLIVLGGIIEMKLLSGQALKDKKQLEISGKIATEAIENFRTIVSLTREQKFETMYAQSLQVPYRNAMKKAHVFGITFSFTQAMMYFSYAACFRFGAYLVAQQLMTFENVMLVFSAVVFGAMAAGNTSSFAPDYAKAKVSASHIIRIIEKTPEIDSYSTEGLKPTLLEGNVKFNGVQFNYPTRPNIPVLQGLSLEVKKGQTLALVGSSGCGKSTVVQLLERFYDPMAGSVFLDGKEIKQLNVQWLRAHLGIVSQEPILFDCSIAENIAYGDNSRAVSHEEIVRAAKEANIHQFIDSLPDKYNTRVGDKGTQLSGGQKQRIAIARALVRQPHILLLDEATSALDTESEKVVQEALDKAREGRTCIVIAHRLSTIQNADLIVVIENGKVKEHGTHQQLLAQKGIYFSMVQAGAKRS
Sequence of Multidrug resistance-associated protein 1 (P33527 whole entry): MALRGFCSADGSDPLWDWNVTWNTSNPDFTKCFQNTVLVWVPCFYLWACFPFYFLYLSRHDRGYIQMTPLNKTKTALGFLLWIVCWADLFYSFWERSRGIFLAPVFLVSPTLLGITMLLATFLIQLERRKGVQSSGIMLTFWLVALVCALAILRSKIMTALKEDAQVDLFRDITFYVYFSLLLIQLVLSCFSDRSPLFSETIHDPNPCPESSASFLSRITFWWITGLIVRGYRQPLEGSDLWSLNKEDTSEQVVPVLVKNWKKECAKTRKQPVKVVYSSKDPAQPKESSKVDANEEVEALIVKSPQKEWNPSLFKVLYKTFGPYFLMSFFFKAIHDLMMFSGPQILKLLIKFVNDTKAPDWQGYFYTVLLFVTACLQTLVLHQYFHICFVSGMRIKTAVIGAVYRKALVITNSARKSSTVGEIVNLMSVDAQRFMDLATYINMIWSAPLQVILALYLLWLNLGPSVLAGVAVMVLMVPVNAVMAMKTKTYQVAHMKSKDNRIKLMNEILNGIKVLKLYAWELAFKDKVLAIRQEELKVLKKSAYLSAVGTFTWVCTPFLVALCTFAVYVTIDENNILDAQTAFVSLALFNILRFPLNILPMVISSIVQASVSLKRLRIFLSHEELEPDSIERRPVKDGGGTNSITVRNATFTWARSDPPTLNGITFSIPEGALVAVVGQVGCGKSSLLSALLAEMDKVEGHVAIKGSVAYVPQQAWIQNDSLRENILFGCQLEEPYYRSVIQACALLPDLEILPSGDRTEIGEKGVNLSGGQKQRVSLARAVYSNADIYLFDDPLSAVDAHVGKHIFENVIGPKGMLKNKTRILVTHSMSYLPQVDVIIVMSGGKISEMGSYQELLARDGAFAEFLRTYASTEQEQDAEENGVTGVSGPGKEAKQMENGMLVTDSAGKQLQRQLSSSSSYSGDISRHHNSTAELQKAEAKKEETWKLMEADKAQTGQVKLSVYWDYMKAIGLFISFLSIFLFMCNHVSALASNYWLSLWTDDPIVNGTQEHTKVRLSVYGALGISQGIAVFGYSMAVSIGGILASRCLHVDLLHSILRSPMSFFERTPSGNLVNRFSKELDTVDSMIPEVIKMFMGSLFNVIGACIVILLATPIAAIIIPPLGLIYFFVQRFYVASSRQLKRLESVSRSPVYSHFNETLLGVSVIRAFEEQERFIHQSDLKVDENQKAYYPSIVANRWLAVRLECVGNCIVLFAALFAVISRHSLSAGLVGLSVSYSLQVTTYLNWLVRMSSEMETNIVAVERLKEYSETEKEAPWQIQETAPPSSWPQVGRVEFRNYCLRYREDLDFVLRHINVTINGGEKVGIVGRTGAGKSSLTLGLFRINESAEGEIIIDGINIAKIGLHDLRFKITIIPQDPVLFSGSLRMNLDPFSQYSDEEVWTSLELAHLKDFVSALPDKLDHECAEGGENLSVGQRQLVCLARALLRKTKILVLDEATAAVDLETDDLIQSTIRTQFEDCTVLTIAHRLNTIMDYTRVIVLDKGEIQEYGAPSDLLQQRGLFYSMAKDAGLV

SMILES: COc1cc2c(cc1OC)CN(CCn1c(-c3ccc(N(C)C)cc3)nc3c(Cl)cccc3c1=O)CC2
IC50 [1]: 1060 nM
IC50 [2]: 2910 nM

SMILES: COc1cc2c(cc1OC)CN(CCn1c(-c3ccc(N(C)C)cc3)nc3ccc(N)cc3c1=O)CC2
IC50 [1]: 2000 nM
IC50 [2]: 7600 nM

SMILES: CCCc1cccc(-c2nc3ccccc3c(=O)n2CCN2CCc3cc(OC)c(OC)cc3C2)c1
IC50 [1]: 800 nM
IC50 [2]: 1000 nM

SMILES: COc1cc2c(cc1OC)CN(CCn1c(-c3ccc(N(C)C)cc3)nc3c(OC)cccc3c1=O)CC2
IC50 [1]: 50 nM
IC50 [2]: 15100 nM

SMILES: COc1cc2c(cc1OC)CN(CCn1c(-c3ccc(N(C)C)cc3)nc3cc(N)ccc3c1=O)CC2
IC50 [1]: 7200 nM
IC50 [2]: 18600 nM

SMILES: COc1cc2c(cc1OC)CN(CCn1c(-c3ccc(N(C)C)cc3)nc3c(C)cccc3c1=O)CC2
IC50 [1]: 630 nM
IC50 [2]: 6350 nM

SMILES: COc1cc2c(cc1OC)CN(CCn1c(-c3ccc(N(C)C)cc3)nc3cccc(Cl)c3c1=O)CC2
IC50 [1]: 160 nM
IC50 [2]: 3840 nM

SMILES: COc1cc2c(cc1OC)CN(CCn1c(-c3ccc(C(C)C)cc3)nc3ccccc3c1=O)CC2
IC50 [1]: 1000 nM
IC50 [2]: 500 nM

SMILES: COc1ccc(CCN(C)CCn2c(-c3ccc(N(C)C)cc3)nc3ccccc3c2=O)cc1OC
IC50 [1]: 1900 nM
IC50 [2]: 37000 nM

SMILES: COc1cc2c(cc1OC)CN(CCn1c(-c3ccc4c(c3)OCO4)nc3ccccc3c1=O)CC2
IC50 [1]: 3700 nM
IC50 [2]: 1500 nM

SMILES: COc1cc2c(cc1OC)CN(CCn1c(-c3ccc(N(C)C)cc3)nc3cc([N+](=O)[O-])ccc3c1=O)CC2
IC50 [1]: 1100 nM
IC50 [2]: 2020 nM

SMILES: CCN(CC)c1ccc(-c2nc3ccccc3c(=O)n2CCN2CCc3cc(OC)c(OC)cc3C2)cc1
IC50 [1]: 1300 nM
IC50 [2]: > 10000 nM

SMILES: COc1cc2c(cc1OC)CN(CCn1c(-c3ccc(N(C)C)cc3)nc3ccc(Cl)cc3c1=O)CC2
IC50 [1]: 1700 nM
IC50 [2]: 1560 nM

SMILES: COc1cc2c(cc1OC)CN(CCn1c(-c3ccccc3O)nc3ccccc3c1=O)CC2
IC50 [2]: 95000 nM

SMILES: CN(C)c1ccc(-c2nc3ccccc3c(=O)n2CC2CCCCC2)cc1
IC50 [1]: 14000 nM
IC50 [2]: 10000 nM

SMILES: COc1cc2c(cc1OC)CN(CCn1c(-c3ccc(N(C)C)cc3)nc3ccc([N+](=O)[O-])cc3c1=O)CC2
IC50 [1]: 600 nM
IC50 [2]: 400 nM

SMILES: COc1cc2c(cc1OC)CN(CCn1c(-c3ccccc3)nc3ccccc3c1=O)CC2
IC50 [1]: 8000 nM
IC50 [2]: 2800 nM

SMILES: COc1cc2c(cc1OC)CN(CCn1c(-c3ccc(N(C)C)cc3)nc3cc(Cl)ccc3c1=O)CC2
IC50 [1]: 1350 nM
IC50 [2]: 1330 nM

SMILES: COc1cc2c(cc1OC)CN(CCn1c(-c3cccc(N(C)C)c3)nc3ccccc3c1=O)CC2
IC50 [1]: 1600 nM
IC50 [2]: 4500 nM

SMILES: COc1cc2c(cc1OC)CN(CCn1c(-c3ccc4ccccc4c3)nc3ccccc3c1=O)CC2
IC50 [1]: 850 nM
IC50 [2]: 900 nM

SMILES: COc1cc(C(=O)C(=O)N2CCCC[C@H]2C(=O)OC(CCCc2cccnc2)CCCc2cccnc2)cc(OC)c1OC [BIRICODAR]
IC50 [1]: 5000 nM
IC50 [2]: 5180 nM

Further lines, results first:

IC50 [1]: 40000 nM
IC50 [2]: > 100000 nM
SMILES: CCCCCCn1c(-c2ccc(N(C)C)cc2)nc2ccccc2c1=O

IC50 [1]: 41000 nM
IC50 [2]: > 100000 nM
SMILES: CN(C)c1ccc(-c2nc3ccccc3c(=O)n2Cc2ccccc2)cc1

IC50 [1]: 1030 nM
IC50 [2]: 1000 nM
SMILES: COc1cc2c(cc1OC)CN(CCn1c(-c3ccc(-c4ccccc4)cc3)nc3ccccc3c1=O)CC2

IC50 [1]: 10000 nM
IC50 [2]: 3330 nM
SMILES: CN(C)c1ccc(-c2nc3ccccc3c(=O)n2CCc2ccncc2)cc1

IC50 [1]: 390 nM
IC50 [2]: 36000 nM
SMILES: CN(C)c1ccc(-c2nc3ccccc3c(=O)n2CCN2CCN(c3ncccn3)CC2)cc1

IC50 [1]: 5000 nM
IC50 [2]: 3200 nM
SMILES: CN(C)c1ccc(-c2nc3ccccc3c(=O)n2CCN2CCc3ccccc3C2)cc1

IC50 [1]: 4200 nM
IC50 [2]: 7200 nM
SMILES: COc1cc(C(=O)N2CCN(CCn3c(-c4ccc(N(C)C)cc4)nc4ccccc4c3=O)CC2)cc(OC)c1OC

IC50 [1]: 2100 nM
IC50 [2]: 39000 nM
SMILES: CN(C)c1ccc(-c2nc3ccccc3c(=O)n2CCN2CCN(Cc3ccccc3)CC2)cc1

IC50 [1]: 1070 nM
IC50 [2]: 1050 nM
EC50 [3]: 3010 nM
EC50 [4]: 3300 nM
SMILES: COc1cc2c(cc1OC)CN(CCn1c(-c3ccc(N(C)C)cc3)nc3ccccc3c1=O)CC2
